US11834453B2, “Substituted pyrimido[5,4-d]pyrimidines as HER2 inhibitors” (Array BioPharma Inc., priority 2020, dated 2023)
pIC50: −log10 of the molar value. Where two headings read alike, the source gives them in different places.

Key:
EGFR = EGFR (Homo sapiens (Human), UniProt P00533); test: ErbB enzyme assay (CisBio HTRF KinEASE-TK), Assay 3; format: biochemical
Procedure, shortened: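 HTRF dual-wavelength read after 1 h detection; POC normalised to DMSO (100) and pre-quenched (0) controls, IC50 where 4-parameter curve crosses 50 POC. Reaction: 250 nM TK-substrate biotin, 1 mM ATP, pH 7.4 HEPES buffer with MgCl2, 30 min, 22 °C.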

EGFR wild type (EGFR WT) = EGFR wild type (EGFR WT) (Homo sapiens (Human), UniProt P00533); test: Cellular phosphorylation assay, EGF-stimulated EGFR phosphorylation in engineered NIH 3T3 cells, Phospho-EGFR DuoSet IC ELISA, Assay 5; format: cell-based
Procedure, shortened: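 Phospho-EGFR ELISA on lysates of engineered NIH 3T3 EGFR WT cells, IC50 derived from concentration curves. Cells plated at 20,000/well overnight, given compound dilutions 1 h at 37 °C, then rEGF 100 ng/ml for a further 10 min before lysis.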

[1] = target: ErbB2 insYVMA (HER2-YVMA, SEQ ID NO: 2) (Homo sapiens, UniProt P04626, INS775YVMA/P1170A); test: biochemical; conditions: ErbB2 insYVMA enzyme assay; for pIC50: read-out: Assay 1 IC50; for IC50: Assay 1 IC50 (nM)
[2] = target: ErbB2 with Exon 20 YVMA insertion (HER2-YVMA) (Homo sapiens (Human), UniProt P04626, INS775YVMA); test: Cellular phosphorylation assay, constitutive ErbB2 phosphorylation (Y1196) in engineered NIH 3T3 cells, Assay 4; format: cell-based
Procedure, shortened: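 In-cell Western in NIH 3T3 cells carrying ErbB2 exon 20 YVMA insertion, with no ligand stimulation. One hour compound exposure at 37 °C before fixation and anti-pY1196 plus GAPDH staining with dual-wavelength fluorescence. IC50 derived after GAPDH normalization.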

ErbB2 WT = ErbB2 WT (Homo sapiens (Human), UniProt P04626); test: ErbB enzyme assay (CisBio HTRF KinEASE-TK), Assay 2; format: biochemical
Procedure, shortened: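 Readout is HTRF KinEASE-TK, using Sa-XL665 and cryptate antibody for 1 h at 22 °C, as percent of control between DMSO-only (100) and pre-quenched (0) reactions. The kinase reaction runs 30 min at 22 °C with 1 mM ATP and 250 nM biotinylated TK substrate, in HEPES pH 7.4 with MgCl2 and 2% DMSO.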

Chain of ErbB2 insYVMA (HER2-YVMA, SEQ ID NO: 2) (P04626 with tags, fused parts or gaps INS775YVMA/P1170A limits assumed): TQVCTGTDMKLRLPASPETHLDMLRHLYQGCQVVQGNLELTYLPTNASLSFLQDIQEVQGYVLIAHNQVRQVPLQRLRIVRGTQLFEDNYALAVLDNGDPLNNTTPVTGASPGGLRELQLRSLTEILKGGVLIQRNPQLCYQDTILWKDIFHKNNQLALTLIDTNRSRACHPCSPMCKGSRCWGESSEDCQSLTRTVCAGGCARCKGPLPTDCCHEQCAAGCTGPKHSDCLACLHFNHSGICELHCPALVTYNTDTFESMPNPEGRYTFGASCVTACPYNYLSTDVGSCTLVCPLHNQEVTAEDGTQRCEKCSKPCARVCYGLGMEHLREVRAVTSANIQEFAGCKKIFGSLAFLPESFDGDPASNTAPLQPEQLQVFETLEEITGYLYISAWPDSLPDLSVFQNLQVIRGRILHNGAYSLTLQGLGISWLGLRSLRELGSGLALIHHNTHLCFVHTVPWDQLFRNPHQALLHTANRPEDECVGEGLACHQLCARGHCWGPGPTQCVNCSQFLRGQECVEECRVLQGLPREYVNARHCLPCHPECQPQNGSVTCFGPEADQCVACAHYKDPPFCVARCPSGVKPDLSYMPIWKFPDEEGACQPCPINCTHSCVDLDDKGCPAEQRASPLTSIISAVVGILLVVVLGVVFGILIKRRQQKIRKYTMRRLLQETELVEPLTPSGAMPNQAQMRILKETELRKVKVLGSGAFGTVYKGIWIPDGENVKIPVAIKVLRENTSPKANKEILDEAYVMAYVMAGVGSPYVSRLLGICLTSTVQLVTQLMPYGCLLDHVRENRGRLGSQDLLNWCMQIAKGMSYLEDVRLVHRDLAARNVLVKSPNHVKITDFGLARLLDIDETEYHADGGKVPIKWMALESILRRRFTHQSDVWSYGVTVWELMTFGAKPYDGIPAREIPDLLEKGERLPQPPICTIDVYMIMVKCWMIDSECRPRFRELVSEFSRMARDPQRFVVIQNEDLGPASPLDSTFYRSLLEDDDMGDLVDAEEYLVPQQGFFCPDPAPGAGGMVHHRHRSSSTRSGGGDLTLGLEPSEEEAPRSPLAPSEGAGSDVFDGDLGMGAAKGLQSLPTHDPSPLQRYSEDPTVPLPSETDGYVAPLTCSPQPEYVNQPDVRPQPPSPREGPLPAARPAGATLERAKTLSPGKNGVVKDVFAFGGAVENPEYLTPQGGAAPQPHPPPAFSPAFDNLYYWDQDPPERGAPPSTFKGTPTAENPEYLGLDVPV
Chain of EGFR (P00533 25-1210): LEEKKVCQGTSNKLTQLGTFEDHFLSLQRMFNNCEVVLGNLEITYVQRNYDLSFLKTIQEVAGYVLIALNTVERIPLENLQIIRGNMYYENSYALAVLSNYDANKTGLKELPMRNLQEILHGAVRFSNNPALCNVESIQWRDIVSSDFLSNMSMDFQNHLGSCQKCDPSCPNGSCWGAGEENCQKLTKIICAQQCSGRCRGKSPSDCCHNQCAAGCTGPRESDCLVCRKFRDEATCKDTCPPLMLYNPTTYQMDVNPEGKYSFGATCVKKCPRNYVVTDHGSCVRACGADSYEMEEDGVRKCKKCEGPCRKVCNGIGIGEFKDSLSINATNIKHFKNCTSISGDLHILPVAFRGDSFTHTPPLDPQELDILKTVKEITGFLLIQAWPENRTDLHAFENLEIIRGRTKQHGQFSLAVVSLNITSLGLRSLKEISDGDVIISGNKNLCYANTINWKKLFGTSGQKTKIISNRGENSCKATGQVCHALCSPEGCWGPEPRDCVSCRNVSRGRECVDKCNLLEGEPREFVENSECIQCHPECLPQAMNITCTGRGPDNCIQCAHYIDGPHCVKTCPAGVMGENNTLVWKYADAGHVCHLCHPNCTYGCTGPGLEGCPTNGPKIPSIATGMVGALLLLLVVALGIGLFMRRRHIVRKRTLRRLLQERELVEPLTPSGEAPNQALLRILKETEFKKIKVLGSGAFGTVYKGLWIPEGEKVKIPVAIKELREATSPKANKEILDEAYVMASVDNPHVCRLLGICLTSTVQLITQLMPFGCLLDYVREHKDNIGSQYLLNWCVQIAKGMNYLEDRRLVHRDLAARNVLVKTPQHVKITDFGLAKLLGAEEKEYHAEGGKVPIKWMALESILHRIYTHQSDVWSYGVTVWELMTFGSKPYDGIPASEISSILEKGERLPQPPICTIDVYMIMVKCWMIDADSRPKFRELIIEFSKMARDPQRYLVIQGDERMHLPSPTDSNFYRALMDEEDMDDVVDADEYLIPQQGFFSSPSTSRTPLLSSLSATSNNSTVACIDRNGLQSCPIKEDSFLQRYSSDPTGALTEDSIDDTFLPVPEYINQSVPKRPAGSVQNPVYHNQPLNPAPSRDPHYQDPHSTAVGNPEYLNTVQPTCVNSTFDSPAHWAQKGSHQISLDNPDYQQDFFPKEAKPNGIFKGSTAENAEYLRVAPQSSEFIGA
Chain of EGFR wild type (EGFR WT) (P00533 25-1210): as above
Chain of ErbB2 with Exon 20 YVMA insertion (HER2-YVMA) (P04626 other isoform, or with tags, fused parts or gaps ins YVMA behind 775): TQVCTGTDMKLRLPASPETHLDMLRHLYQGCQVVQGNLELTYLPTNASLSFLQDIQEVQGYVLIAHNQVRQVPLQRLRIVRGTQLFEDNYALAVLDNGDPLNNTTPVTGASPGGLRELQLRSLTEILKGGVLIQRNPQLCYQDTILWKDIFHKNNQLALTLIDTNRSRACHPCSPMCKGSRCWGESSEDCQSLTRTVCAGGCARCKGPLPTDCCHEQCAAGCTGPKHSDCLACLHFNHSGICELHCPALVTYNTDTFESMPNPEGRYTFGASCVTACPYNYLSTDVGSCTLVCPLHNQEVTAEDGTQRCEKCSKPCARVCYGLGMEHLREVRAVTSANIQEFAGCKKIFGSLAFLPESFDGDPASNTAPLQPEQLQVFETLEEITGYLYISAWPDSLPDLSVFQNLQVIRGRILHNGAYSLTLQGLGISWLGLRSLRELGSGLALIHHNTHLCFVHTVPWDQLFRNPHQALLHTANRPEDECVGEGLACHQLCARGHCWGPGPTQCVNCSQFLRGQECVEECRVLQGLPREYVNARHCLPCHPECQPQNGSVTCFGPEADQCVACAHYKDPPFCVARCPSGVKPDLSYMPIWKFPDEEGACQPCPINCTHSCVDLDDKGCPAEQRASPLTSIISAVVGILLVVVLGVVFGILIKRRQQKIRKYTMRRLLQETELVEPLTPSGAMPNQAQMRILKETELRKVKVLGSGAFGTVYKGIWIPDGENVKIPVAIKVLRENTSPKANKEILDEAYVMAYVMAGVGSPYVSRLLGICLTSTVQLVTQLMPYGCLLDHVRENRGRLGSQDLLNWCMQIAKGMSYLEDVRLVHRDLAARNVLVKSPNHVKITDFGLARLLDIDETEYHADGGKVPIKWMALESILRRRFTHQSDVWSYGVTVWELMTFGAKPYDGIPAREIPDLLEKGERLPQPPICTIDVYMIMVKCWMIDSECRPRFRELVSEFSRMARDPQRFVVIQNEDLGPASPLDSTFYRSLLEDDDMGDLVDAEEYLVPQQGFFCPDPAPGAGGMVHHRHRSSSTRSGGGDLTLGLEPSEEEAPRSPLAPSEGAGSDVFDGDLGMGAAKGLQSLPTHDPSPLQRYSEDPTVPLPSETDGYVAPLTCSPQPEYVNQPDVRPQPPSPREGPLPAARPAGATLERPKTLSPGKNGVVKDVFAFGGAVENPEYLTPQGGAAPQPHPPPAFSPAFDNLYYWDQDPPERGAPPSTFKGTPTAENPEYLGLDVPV

Compound	pIC50 (EGFR)	pIC50 (EGFR wild type (EGFR WT))	pIC50 [1]	pIC50 [2]	pIC50 (ErbB2 WT)	IC50 [1] [nM]
Cc1cc(Nc2ncnc3cnc(N4CC[C@]45CCOC5)nc23)ccc1Oc1ccn2ncnc2c1 [Example 374]	5.93	≤ 5.30	7.84	6.67	7.85	–
CON1CCN(c2ncc3ncnc(Nc4ccc(Oc5ccn6ncnc6c5)c(C)c4)c3n2)CC1 [Example 96, N-(4-([1,2,4]triazolo[1,5-a]pyridin-7-yloxy)-3-methylphenyl)-6-(4-methoxypiperazin-1-yl)pyrimido[5,4-d]pyrimidin-4-amine]	5.05	≤ 5.30	7.64	7.02	7.09	–
Cc1cc(Nc2ncnc3cnc(N4CCOC[C@H]4C)nc23)ccc1Oc1ccc2c(c1)ncn2C [Example 257]	5.48	≤ 5.30	7.70	8.03	8.09	–
Clc1cc(Nc2ncnc3cnc(N4CCOC5(CC5)C4)nc23)ccc1Oc1ccn2ncnc2c1 [Example 398]	5.11	≤ 5.30	7.66	7.15	7.44	–
Cc1cc(Nc2ncnc3cnc(N4CCC5(CCO5)CC4)nc23)ccc1Oc1ccc2c(c1)ncn2C [Example 345]	≤ 5.00	≤ 5.30	7.50	7.73	7.24	–
COC1CCN(c2ncc3ncnc(Nc4ccc(Oc5ccn6ncnc6c5)c(C)c4)c3n2)CC1 [Example 411]	≤ 5.00	≤ 5.30	7.58	6.22	7.25	–
Cn1cnc2cc(Oc3ccc(Nc4ncnc5cnc(N6C[C@@H]7CC[C@H]6CO7)nc45)cc3Cl)ccc21 [Example 446]	≤ 5.00	≤ 5.30	7.68	6.91	6.87	–
Cc1cc(Nc2ncnc3cnc(N4CC5(CCOC5)C4)nc23)ccc1Oc1ccn2ncnc2c1 [Example 373]	≤ 5.00	≤ 5.30	7.09	5.61	6.51	–
Clc1cc(Nc2ncnc3cnc(N4CCOCC4)nc23)ccc1Oc1ccn2ncnc2c1 [Example 409]	5.45	≤ 5.30	7.74	7.37	7.49	–
Cc1cc(Nc2ncnc3cnc(N4CC5(C4)CC5(F)F)nc23)ccc1Oc1ccc2c(c1)ncn2C [Example 300]	≤ 5.00	≤ 5.30	7.12	7.51	6.55	–
Cc1cc(Nc2ncnc3cnc(N4CC5CC(C4)C5O)nc23)ccc1Oc1ccc2c(c1)ncn2C (centres unmarked) [Example 464]	≤ 5.00	≤ 5.30	–	7.08	7.22	9.4
Cn1cnc2cc(Oc3ccc(Nc4ncnc5cnc(N6CC[C@H](C#N)C6)nc45)cc3Cl)ccc21 [Example 152, (S)-1-(8-((3-chloro-4-((1-methyl-1H-benzo[d]imidazol-5-yl)oxy)phenyl)amino)pyrimido[5,4-d]pyrimidin-2-yl)pyrrolidine-3-carbonitrile 2,2,2-trifluoroacetate]	≤ 5.00	≤ 5.30	–	7.50	7.10	36.7
Cc1cc(Nc2ncnc3cnc(NC4CC4)nc23)ccc1Oc1ccc2c(c1)ncn2C [Example 270]	≤ 5.00	≤ 5.30	7.96	8.51	7.65	–
FC(F)(F)[C@H]1CN(c2ncc3ncnc(Nc4ccc(Oc5ccn6ncnc6c5)c(Cl)c4)c3n2)CCN1 [Example 429]	5.40	≤ 5.30	7.95	7.33	7.40	–
Cc1c(Oc2ccn3ncnc3c2)ccc(Nc2ncnc3cnc(N4C[C@@H](O)C(F)(F)C4)nc23)c1F [Example 316]	5.30	≤ 5.30	7.28	5.88	6.95	–
Cc1cc(Nc2ncnc3cnc(N4CC5CCC(C4)O5)nc23)ccc1Oc1ccc2c(c1)ncn2C [Example 256]	≤ 5.00	≤ 5.30	7.31	7.91	7.14	–
